Data as given in publication PMC10247784, “Physiological activation of human and mouse bitter taste receptors by bile acids” (Communications Biology, 2023).

What was measured:
mouse Tas2r105 = target: T1, mouse Tas2r105 (Mus musculus, UniProt Q9JKT4); assay: Calcium imaging assay (FLIPR), HEK293T-Gα16gust44 cells transfected with mouse Tas2r105; type: cell-based; conditions: for Δ F/F: Tas2r105
T1 construct: expressed in transfected cells; host or cells: HEK293T-Gα16gust44
T1 sequence (Q9JKT4 1-300): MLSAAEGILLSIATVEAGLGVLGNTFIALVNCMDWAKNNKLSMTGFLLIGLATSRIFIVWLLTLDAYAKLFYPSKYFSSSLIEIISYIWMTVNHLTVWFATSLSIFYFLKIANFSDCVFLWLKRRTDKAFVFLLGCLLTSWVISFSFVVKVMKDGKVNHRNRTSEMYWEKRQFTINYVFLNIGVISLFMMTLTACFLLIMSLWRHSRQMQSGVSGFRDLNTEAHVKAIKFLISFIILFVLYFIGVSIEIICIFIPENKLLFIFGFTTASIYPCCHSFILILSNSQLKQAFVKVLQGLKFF
Method: This set of bile acids was chosen because of their commercial availability in high purities, their diversity within the class of bile acids and their previous detection and quantitation in human blood. Stock solutions were prepared in DMSO.
As basal growth medium for the HEK293T-Gα16gust44 cell line[17],[59] served Dulbecco’s modified eagle medium (DMEM) (Thermo Fisher Scientific, Darmstadt, Germany) supplemented with 10 % fetal bovine serum (Sigma-Aldrich, Steinheim, Germany), 2 mM L-glutamine (Sigma-Aldrich, Steinheim, Germany), 100 units/ml penicillin (Sigma Aldrich, Steinheim, Germany) and 100 µg/ml streptomycin (Sigma Aldrich, Steinheim, Germany). Growth conditions were 37 °C, 5 % CO2 and saturated air-humidity[60].
HEK293T-Gα16gust44 cells were seeded on poly-D-lysine (10 µg/ml) coated 96-well plates to reach a confluence of 40-60 % the next day. For transient transfection 150 ng of plasmid DNA containing the receptor of interest and 0.3 µl lipofectamine 2000 (Thermo Fisher Scientific, Darmstadt, Germany) per well were used and transfection took place according to the manual of lipofectamine 2000. […] The empty vector DNA (mock) was transfected as negative control[14],[41].
Cells were loaded using the calcium-sensitive fluorescent dye Fluo-4-AM (Abcam, Cambridge, Great Britain) in the presence of 2.5 mM probenecid (Sigma-Aldrich, Steinheim, Germany) the day after transfection[13],[41]. 1 h after loading, cells were washed with C1 buffer using a BioTek Cell Washer, incubated in the dark for half an hour and washed again. For automated agonist application and measurement of fluorescence changes, a FLIPR^TETRA device (Molecular Devices, San José, United States) was used. Viability of cells was tested by application of 100 nM Somatostatin 14 (Bachem, Bubendorf, Switzerland)[42].
Measured data were negative control corrected by subtracting the signal of the mock-transfected cells and exported to Microsoft Excel using the FLIPR software ScreenWorks 4.2. In Microsoft Excel software, standardization of maximum fluorescence intensities to the basal fluorescence and normalization to the buffer-only control was done to calculate the relative fluorescence changes (ΔF/F).
Initial screening experiments performed in duplicate wells were confirmed by at least one replication and representative traces were selected for display. All dose-response relationships were determined by three independent experiments (biological replicates) performed in duplicates (technical replicates). Threshold concentrations, defined as lowest substance concentrations leading to statistically significant elevated fluorescence changes in receptor-transfected cells compared with empty vector-transfected cells, were determined using SigmaPlot with Student’s t-test to evaluate statistical significance (p < 0.01).

[1] = test system: T2R02 of Latimeria chalumnae; parameters: method as in PMID 33355666; conditions: cited from earlier work

C[C@H](CCC(=O)NCC(=O)O)[C@H]1CC[C@H]2[C@@H]3[C@H](O)C[C@@H]4C[C@H](O)CC[C@]4(C)[C@H]3C[C@H](O)[C@]12C [Glycocholic Acid, glycocholic acid]
Δ F/F (mouse Tas2r105; conc. 0,01 mM): 0.004381 | Δ F/F (mouse Tas2r105; conc. 0,1 mM): 0.01642 | Δ F/F (mouse Tas2r105; conc. 0,03 mM): 0.01245 | Δ F/F (mouse Tas2r105; conc. 0,3 mM): 0.0274 | Δ F/F (mouse Tas2r105; conc. 0,001 mM): 0.003279 | Δ F/F (mouse Tas2r105; conc. 1 mM): 0.07136 | Δ F/F (mouse Tas2r105; conc. 0,003 mM): -0.003104 | RLU (mouse Tas2r105; Time 0 s): 0 RLU | RLU (mouse Tas2r105; Time 2 s): -27.0595 RLU | RLU (mouse Tas2r105; Time 4 s): -18.6603 RLU | RLU (mouse Tas2r105; Time 6 s): -18.2123 RLU | RLU (mouse Tas2r105; Time 8 s): -47.8563 RLU | RLU (mouse Tas2r105; Time 12 s): -34.2819 RLU | RLU (mouse Tas2r105; Time 14 s): -34.7557 RLU | RLU (mouse Tas2r105; Time 16 s): -23.6188 RLU | RLU (mouse Tas2r105; Time 18 s): -16.5747 RLU | RLU (mouse Tas2r105; Time 18.781 s): -3.899 RLU | RLU (mouse Tas2r105; Time 20.781 s): -20.1413 RLU | RLU (mouse Tas2r105; Time 22.781 s): -4.143 RLU | RLU (mouse Tas2r105; Time 24.781 s): 15.6549 RLU | RLU (mouse Tas2r105; Time 26.781 s): 13.7683 RLU | RLU (mouse Tas2r105; Time 28.781 s): 17.1414 RLU | RLU (mouse Tas2r105; Time 30.781 s): 33.1924 RLU | RLU (mouse Tas2r105; Time 32.781 s): 40.0682 RLU | RLU (mouse Tas2r105; Time 34.781 s): 38.6999 RLU | RLU (mouse Tas2r105; Time 36.781 s): 117.771 RLU | RLU (mouse Tas2r105; Time 38.781 s): 121.11 RLU | RLU (mouse Tas2r105; Time 40.781 s): 113.511 RLU | RLU (mouse Tas2r105; Time 42.781 s): 141.314 RLU | RLU (mouse Tas2r105; Time 44.781 s): 160.969 RLU | RLU (mouse Tas2r105; Time 46.781 s): 200.571 RLU | RLU (mouse Tas2r105; Time 48.781 s): 228.76 RLU | RLU (mouse Tas2r105; Time 50.781 s): 238.054 RLU | RLU (mouse Tas2r105; Time 52.781 s): 279.774 RLU | RLU (mouse Tas2r105; Time 54.781 s): 314.942 RLU | RLU (mouse Tas2r105; Time 56.781 s): 299.791 RLU | RLU (mouse Tas2r105; Time 58.781 s): 350.668 RLU | RLU (mouse Tas2r105; Time 60.781 s): 363.761 RLU | RLU (mouse Tas2r105; Time 62.781 s): 387.64 RLU | RLU (mouse Tas2r105; Time 64.781 s): 388.62 RLU | RLU (mouse Tas2r105; Time 66.781 s): 424.095 RLU | RLU (mouse Tas2r105; Time 68.781 s): 419.549 RLU | RLU (mouse Tas2r105; Time 70.781 s): 443.973 RLU | RLU (mouse Tas2r105; Time 72.781 s): 413.221 RLU | RLU (mouse Tas2r105; Time 74.781 s): 419.192 RLU | RLU (mouse Tas2r105; Time 76.781 s): 460.126 RLU | RLU (mouse Tas2r105; Time 78.781 s): 478.685 RLU | RLU (mouse Tas2r105; Time 80.781 s): 487.49 RLU | RLU (mouse Tas2r105; Time 82.781 s): 529.97 RLU | RLU (mouse Tas2r105; Time 84.781 s): 535.792 RLU | RLU (mouse Tas2r105; Time 86.781 s): 528.828 RLU | RLU (mouse Tas2r105; Time 88.781 s): 565.311 RLU | RLU (mouse Tas2r105; Time 90.781 s): 546.96 RLU | RLU (mouse Tas2r105; Time 92.781 s): 541.782 RLU | RLU (mouse Tas2r105; Time 94.781 s): 524.334 RLU | RLU (mouse Tas2r105; Time 96.781 s): 507.8 RLU | RLU (mouse Tas2r105; Time 98.781 s): 505.738 RLU | RLU (mouse Tas2r105; Time 100.781 s): 510.912 RLU | RLU (mouse Tas2r105; Time 102.781 s): 470.239 RLU | RLU (mouse Tas2r105; Time 104.781 s): 497.869 RLU | RLU (mouse Tas2r105; Time 106.781 s): 500.977 RLU | RLU (mouse Tas2r105; Time 108.781 s): 492.243 RLU | RLU (mouse Tas2r105; Time 110.781 s): 525.903 RLU | RLU (mouse Tas2r105; Time 112.781 s): 501.6 RLU | RLU (mouse Tas2r105; Time 114.781 s): 517.173 RLU | RLU (mouse Tas2r105; Time 116.781 s): 514.443 RLU | RLU (mouse Tas2r105; Time 118.781 s): 515.53 RLU | RLU (mouse Tas2r105; Time 120.781 s): 497.17 RLU | RLU (mouse Tas2r105; Time 122.781 s): 525.829 RLU | RLU (mouse Tas2r105; Time 124.781 s): 530.193 RLU | RLU (mouse Tas2r105; Time 126.781 s): 525.829 RLU | RLU (mouse Tas2r105; Time 128.781 s): 520.174 RLU | RLU (mouse Tas2r105; Time 130.781 s): 519.565 RLU | RLU (mouse Tas2r105; Time 132.781 s): 551.214 RLU | RLU (mouse Tas2r105; Time 134.781 s): 551.693 RLU | RLU (mouse Tas2r105; Time 136.781 s): 519.874 RLU | RLU (mouse Tas2r105; Time 137.578 s): 524.174 RLU | RLU (mouse Tas2r105; Time 143.578 s): 517.004 RLU | RLU (mouse Tas2r105; Time 149.578 s): 507.474 RLU | RLU (mouse Tas2r105; Time 155.578 s): 522.299 RLU | RLU (mouse Tas2r105; Time 161.578 s): 476.762 RLU | RLU (mouse Tas2r105; Time 167.578 s): 499.828 RLU | RLU (mouse Tas2r105; Time 173.578 s): 455.735 RLU | RLU (mouse Tas2r105; Time 179.578 s): 459.26 RLU | RLU (mouse Tas2r105; Time 185.578 s): 429.678 RLU | RLU (mouse Tas2r105; Time 191.578 s): 409.042 RLU | RLU (mouse Tas2r105; Time 197.578 s): 394.775 RLU | RLU (mouse Tas2r105; Time 203.578 s): 421.467 RLU | RLU (mouse Tas2r105; Time 209.578 s): 379.61 RLU | RLU (mouse Tas2r105; Time 215.578 s): 405.275 RLU | RLU (mouse Tas2r105; Time 221.578 s): 372.014 RLU | RLU (mouse Tas2r105; Time 227.578 s): 339.525 RLU | RLU (mouse Tas2r105; Time 233.578 s): 348.807 RLU | RLU (mouse Tas2r105; Time 239.578 s): 313.214 RLU | RLU (mouse Tas2r105; Time 245.578 s): 300.083 RLU | RLU (mouse Tas2r105; Time 293.578 s): 317.696 RLU | RLU (mouse Tas2r105; Time 299.578 s): 309.428 RLU | RLU (mouse Tas2r105; Time 305.578 s): 321.267 RLU | RLU (mouse Tas2r105; Time 311.578 s): 329.776 RLU | RLU (mouse Tas2r105; Time 317.578 s): 375.676 RLU | RLU (mouse Tas2r105; Time 323.578 s): 369.197 RLU | RLU (mouse Tas2r105; Time 329.578 s): 335.975 RLU | RLU (mouse Tas2r105; Time 335.578 s): 363.52 RLU | RLU (mouse Tas2r105; Time 341.578 s): 327.284 RLU | RLU (mouse Tas2r105; Time 347.578 s): 338.669 RLU | RLU (mouse Tas2r105; Time 353.578 s): 324.825 RLU | RLU (mouse Tas2r105; Time 359.578 s): 287.782 RLU | Activation threshold concentration Tas2r105 (mouse Tas2r105; p < 0.01 vs empty vector): 300 µM | Activation of T2R02 [1]: activate
